Test [1] concerns Enzephalomyocarditis virus RNA. The following applies: Borden E. et al. 1979, 1981; cited from earlier work.
The next test has as its system SV40 virus DNA. The settings on record: Borden E. et al. 1979, 1981; cited from earlier work.
The test system of test [2] is A/New Caledonia/20/99 (H1N1). Type of test: cell-based, influenza A virus.
The subject of test [3] is A/New Caledonia/20/99 (H1N1)-like ΔNS1 virus. Type of test: cell-based, influenza A virus.
Test [4] has as its system A/Vienna/28/2006 (H3N2) (A/Wisconsin/67/2005-like). Type of test: cell-based, influenza A virus.
Test [5] relates to B/Vienna/32/2006 (B/Malaysia/2506/2004-like). Type of test: cell-based, influenza B.
A further test relates to influenza B virus. Type of test: cell-based.
In test [6] the test system is A/Wisconsin/67/2005 (H3N2)-like virus. Type of test: cell-based, influenza A virus.

“And” between values parts separate entries of the source, which are not always exact repeats. Identical values can stand only once.

In the case of `COC(=O)[C@H]1[C@@H]2C[C@@H](O[C@@H]3O[C@H](C)[C@@H](O)[C@H](N)[C@@H]3O)/C=C/C=C/C=C/C=C/C=C/C=C/C=C/[C@H](C)[C@@H](O)[C@@H](C)[C@H](C)OC(=O)C[C@H](O)C[C@H](O)CC[C@@H](O)[C@H](O)C[C@H](O)C[C@](O)(C[C@@H]1O)O2` [Amphotericin B methyl ester], in test [1], the “infectivity of viral RNA” value is reported as “increase the infectivity”. For the same compound, the “infectivity of viral DNA” value in the test on SV40 virus DNA was “increase the infectivity”.
For the compound `C[C@@H]1[C@H](O)[C@@H](C)/C=C/C=C/C=C/C=C/C=C/C=C/C=C/[C@H](O[C@@H]2O[C@H](C)[C@@H](O)[C@H](N)[C@@H]2O)C[C@@H]2O[C@](O)(C[C@@H](O)C[C@@H](O)[C@H](O)CC[C@@H](O)C[C@@H](O)CC(=O)O[C@H]1C)C[C@H](O)[C@H]2C(=O)O` [amphotericin B], the “less virus obtained when no amphotericin B is added” value in test [2] was 1 log. Besides, in test [3], the “increase of sensitivity (titre) of TCID50 titration” value is about 1 log. Also, the “higher virus titre if grown in the presence of amphotericin B” value in test [4] is recorded as at least 1 log. The “titre of B virus in the presence of amphotericin B” value in test [5] was “more than 1E+08 pfu/ml”. The “clinical samples positive for virus isolation” value in the test on influenza B virus was 9. Besides, in test [6], the “cytopathic effect of transfectant virus” value was “clear cytopathic effect”; the “titre of transfectant virus” value is 2E+04 TCID50/ml and 2.0E+04 TCID50/ml.

The record behind these values is patent US8288145B2, “Medium supplement for virus production” (AVIR Green Hills Biotechnology, priority 2006, dated 2012).
